Experimental data from PubChem BioAssay (NCI).
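Step 1: Grow cells in 96-well plates. Step 2: Expose to compound for 48 hours at 5 concentrations. Step 3: Interpolate endpoints linearly; if unreached, use highest concentration. TGI: total growth inhibition.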

How the values were obtained:
Test in all cases: DTP human tumour cell line panel, 48 h
CCRF-CEM leukemia = tested on: CCRF-CEM leukemia
MCF7 breast = tested on: MCF7 breast
IGROV1 ovarian = tested on: IGROV1 ovarian
COLO 205 colon = tested on: COLO 205 colon
SK-MEL-28 melanoma = tested on: SK-MEL-28 melanoma
HCC-2998 colon = tested on: HCC-2998 colon
SK-MEL-2 melanoma = tested on: SK-MEL-2 melanoma
A549 NSCLC = tested on: A549 NSCLC
HCT-116 colon = tested on: HCT-116 colon
HOP-62 NSCLC = tested on: HOP-62 NSCLC
SW-620 colon = tested on: SW-620 colon
U251 CNS = tested on: U251 CNS
SNB-19 CNS = tested on: SNB-19 CNS
SK-MEL-5 melanoma = tested on: SK-MEL-5 melanoma
SF-539 CNS = tested on: SF-539 CNS
DU-145 prostate = tested on: DU-145 prostate
CAKI-1 renal = tested on: CAKI-1 renal
SF-295 CNS = tested on: SF-295 CNS
SNB-75 CNS = tested on: SNB-75 CNS
RXF 393 renal = tested on: RXF 393 renal
M14 melanoma = tested on: M14 melanoma
SR leukemia = tested on: SR leukemia
BT-549 breast = tested on: BT-549 breast
NCI/ADR-RES ovarian = tested on: NCI/ADR-RES ovarian
OVCAR-4 ovarian = tested on: OVCAR-4 ovarian
SN12C renal = tested on: SN12C renal
EKVX NSCLC = tested on: EKVX NSCLC
MDA-MB-231 breast = tested on: MDA-MB-231 breast
ACHN renal = tested on: ACHN renal
SK-OV-3 ovarian = tested on: SK-OV-3 ovarian
TK-10 renal = tested on: TK-10 renal
HS 578T breast = tested on: HS 578T breast
HL-60(TB) leukemia = tested on: HL-60(TB) leukemia
NCI-H226 lung = tested on: NCI-H226 lung
MOLT-4 leukemia = tested on: MOLT-4 leukemia
SF-268 CNS = tested on: SF-268 CNS
RPMI-8226 leukemia = tested on: RPMI-8226 leukemia
NCI-H460 lung = tested on: NCI-H460 lung
UO-31 renal = tested on: UO-31 renal
OVCAR-8 ovarian = tested on: OVCAR-8 ovarian
T-47D breast = tested on: T-47D breast
LOX IMVI melanoma = tested on: LOX IMVI melanoma
UACC-62 melanoma = tested on: UACC-62 melanoma
KM12 colon = tested on: KM12 colon
MDA-MB-435 = tested on: MDA-MB-435
NCI-H23 lung = tested on: NCI-H23 lung
786-0 renal = tested on: 786-0 renal
HT29 colon = tested on: HT29 colon
HCT-15 colon = tested on: HCT-15 colon
K-562 leukemia = tested on: K-562 leukemia
OVCAR-5 ovarian = tested on: OVCAR-5 ovarian
UACC-257 melanoma = tested on: UACC-257 melanoma
NCI-H522 lung = tested on: NCI-H522 lung
OVCAR-3 ovarian = tested on: OVCAR-3 ovarian
MALME-3M melanoma = tested on: MALME-3M melanoma
MDA-N = tested on: MDA-N
A498 renal = tested on: A498 renal
PC-3 prostate = tested on: PC-3 prostate
HOP-92 NSCLC = tested on: HOP-92 NSCLC

Work on `CC(C)C1CC[C@H](C)C[C@@H]1OC(=O)C(C(=O)O[C@H]1C[C@@H](C)CCC1C(C)C)C(O)[C@@H]1OC(C)(C)O[C@H]1C1COC(C)(C)O1` (stereo partly drawn) yielded a TGI (CCRF-CEM leukemia) of 50.2 µM, a TGI (MCF7 breast) of 22.6 µM and a TGI (IGROV1 ovarian) of 30.4 µM. For the same compound, the TGI (COLO 205 colon) was 28.2 µM, the TGI (SK-MEL-28 melanoma) was 35.4 µM and the TGI (HCC-2998 colon) was 26.7 µM. It also gave a TGI (SK-MEL-2 melanoma) of 38.2 µM, a TGI (A549 NSCLC) of 66.6 µM and a TGI (HCT-116 colon) of 23.9 µM. The TGI (HOP-62 NSCLC) was 37.5 µM, the TGI (SW-620 colon) was 35.7 µM and the TGI (U251 CNS) was 27.2 µM. For the same compound, the TGI (SNB-19 CNS) was 29.8 µM, the TGI (SK-MEL-5 melanoma) was 29.2 µM and the TGI (SF-539 CNS) was 49.5 µM. The TGI (DU-145 prostate) was 44.5 µM, the TGI (CAKI-1 renal) was 34.6 µM and the TGI (SF-295 CNS) was 32.6 µM. For the same compound, the TGI (SNB-75 CNS) was 53 µM, the TGI (RXF 393 renal) was 28.9 µM and the TGI (M14 melanoma) was 37.8 µM. For the same compound, the TGI (SR leukemia) was 34.9 µM, the TGI (BT-549 breast) was 34.2 µM and the TGI (NCI/ADR-RES ovarian) was 45.4 µM. The TGI (OVCAR-4 ovarian) was 50.9 µM, the TGI (SN12C renal) was 30 µM and the TGI (EKVX NSCLC) was 41.8 µM. It also gave a TGI (MDA-MB-231 breast) of 36.2 µM, a TGI (ACHN renal) of 32 µM and a TGI (SK-OV-3 ovarian) of 65.4 µM. It also gave a TGI (TK-10 renal) of 37.1 µM, a TGI (HS 578T breast) of 36.5 µM and a TGI (HL-60(TB) leukemia) of 42.2 µM. For the same compound, the TGI (NCI-H226 lung) was 41.2 µM, the TGI (MOLT-4 leukemia) was 42.8 µM and the TGI (SF-268 CNS) was 42.7 µM. For the same compound, the TGI (RPMI-8226 leukemia) was 44.6 µM, the TGI (NCI-H460 lung) was 32.1 µM and the TGI (UO-31 renal) was 31.3 µM. For the same compound, the TGI (OVCAR-8 ovarian) was 47.2 µM, the TGI (T-47D breast) was 32.3 µM and the TGI (LOX IMVI melanoma) was 35.5 µM. For the same compound, the TGI (UACC-62 melanoma) was 40.5 µM, the TGI (KM12 colon) was 31.6 µM and the TGI (MDA-MB-435) was 32 µM. It also gave a TGI (NCI-H23 lung) of 31.9 µM, a TGI (786-0 renal) of 31.7 µM and a TGI (HT29 colon) of 32.2 µM. The TGI (HCT-15 colon) was 44.3 µM, the TGI (K-562 leukemia) was 32.2 µM and the TGI (OVCAR-5 ovarian) was 31.9 µM. It also gave a TGI (UACC-257 melanoma) of 78.2 µM, a TGI (NCI-H522 lung) of 3.95 µM and a TGI (OVCAR-3 ovarian) of 36.2 µM. The TGI (MALME-3M melanoma) was 36 µM and the TGI (MDA-N) was 35.4 µM.
Work on `CC(=O)Oc1ccc(/C=C/C(=O)O[C@H]2CCCC[C@@H]2OC(=O)/C=C/c2ccc(OC(C)=O)c(OC(C)=O)c2)cc1OC(C)=O` yielded a TGI (CCRF-CEM leukemia) of 16.9 µM, a TGI (MCF7 breast) of 42.9 µM and a TGI (IGROV1 ovarian) of 64.9 µM. For the same compound, the TGI (A498 renal) was 38.2 µM, the TGI (COLO 205 colon) was 46.6 µM and the TGI (SK-MEL-28 melanoma) was 33.1 µM. The TGI (HCC-2998 colon) was 32.6 µM, the TGI (SK-MEL-2 melanoma) was 53.1 µM and the TGI (A549 NSCLC) was greater than 100 µM. For the same compound, the TGI (HCT-116 colon) was 20.3 µM, the TGI (HOP-62 NSCLC) was 32.2 µM and the TGI (SW-620 colon) was 10.6 µM. For the same compound, the TGI (U251 CNS) was greater than 100 µM, the TGI (SNB-19 CNS) was 27.6 µM and the TGI (SK-MEL-5 melanoma) was 15.1 µM. The TGI (PC-3 prostate) was greater than 100 µM, the TGI (SF-539 CNS) was greater than 100 µM and the TGI (DU-145 prostate) was 33.7 µM. For the same compound, the TGI (CAKI-1 renal) was greater than 100 µM, the TGI (SF-295 CNS) was 19 µM and the TGI (SNB-75 CNS) was 58.3 µM. The TGI (RXF 393 renal) was 27.7 µM, the TGI (HOP-92 NSCLC) was 33.7 µM and the TGI (M14 melanoma) was 25.6 µM. The TGI (SR leukemia) was greater than 100 µM, the TGI (BT-549 breast) was 36.9 µM and the TGI (NCI/ADR-RES ovarian) was greater than 100 µM. For the same compound, the TGI (OVCAR-4 ovarian) was greater than 100 µM, the TGI (SN12C renal) was 29.8 µM and the TGI (EKVX NSCLC) was 44 µM. For the same compound, the TGI (MDA-MB-231 breast) was greater than 100 µM, the TGI (ACHN renal) was 33.4 µM and the TGI (SK-OV-3 ovarian) was 27.4 µM. The TGI (TK-10 renal) was 63.2 µM, the TGI (HS 578T breast) was greater than 100 µM and the TGI (MOLT-4 leukemia) was 34.8 µM. The TGI (SF-268 CNS) was 32.6 µM, the TGI (RPMI-8226 leukemia) was 31.9 µM and the TGI (NCI-H460 lung) was greater than 100 µM. The TGI (UO-31 renal) was 20.6 µM, the TGI (OVCAR-8 ovarian) was 61.7 µM and the TGI (T-47D breast) was 47.1 µM. It also gave a TGI (LOX IMVI melanoma) of 15.4 µM, a TGI (UACC-62 melanoma) of 17.7 µM and a TGI (KM12 colon) of 60.2 µM. It also gave a TGI (MDA-MB-435) of 32.7 µM, a TGI (NCI-H23 lung) of 27 µM and a TGI (786-0 renal) of 36 µM. The TGI (HT29 colon) was greater than 100 µM, the TGI (HCT-15 colon) was 31.2 µM and the TGI (K-562 leukemia) was greater than 100 µM. For the same compound, the TGI (OVCAR-5 ovarian) was 28.4 µM, the TGI (UACC-257 melanoma) was 52.6 µM and the TGI (NCI-H522 lung) was 22.3 µM. For the same compound, the TGI (OVCAR-3 ovarian) was 95.7 µM, the TGI (MALME-3M melanoma) was 37.1 µM and the TGI (MDA-N) was 27.5 µM.
